Assay results: US9206226B2, “Non-ionic acid-labile surfactants and methods of use” (Protea Biosciences, Inc., priority 2011, dated 2015)

Biological target: bovine serum albumin (BSA) (Bos taurus, UniProt P02769)
Assay: MALDI-TOF mass spectra of BSA with surfactant, intact and acid-degraded
Conditions: for BSA MALDI signal after surfactant degradation: degraded about 30 minutes in 1% TFA at pH 2.5
Text: The various embodiments of non-ionic acid-labile surfactants and methods of use described herein may be better understood when read in conjunction with the following representative examples. The following examples are included for purposes of illustration and not limitation. MALDI-TOF spectra were acquired using an ABI 4800 mass spectrometer in the linear mode.
Referring to FIGS. 2A-C, 0.1% N-[2,2-Bis(pentyloxy)propan-1-aminocarbonyl]-β-maltosylamine was mixed with bovine serum albumin (BSA) in water. The samples were spotted onto a MALDI pre-spotted target with CHCA MALDI matrix using C8 reversed phase tips. FIG. 2A includes a mass spectra of 20 pmol BSA in water. BSA was detected at m/z 22344, m/z 33480, and m/z 66854. FIG. 2B includes a mass spectra of 20 pmol BSA dissolved in 0.1% N-[2,2-Bis(pentyloxy)propan-1-aminocarbonyl]-β-maltosylamine. […] FIG. 2C includes a mass spectra of 20 pmol BSA in 0.1% N-[2,2-Bis(pentyloxy)propan-1-aminocarbonyl]-β-maltosylamine after being degraded for about thirty (30) minutes in 1% TFA at pH 2.5. BSA was detected at m/z 22212, m/z 33309, and m/z 66460.
Referring to FIGS. 3A-C, 1% N-[2,2-Bis(pentyloxy)propan-1-aminocarbonyl]-β-maltosylamine was mixed with bovine serum albumin (BSA) in water. The samples were spotted onto a MALDI pre-spotted target with CHCA MALDI matrix using C8 reversed phase tips. FIG. 3A includes a mass spectra of 20 pmol BSA in water. BSA was detected at m/z 22344, m/z 33480, and m/z 66854. FIG. 3B includes a mass spectra of 20 pmol BSA dissolved in 1% N-[2,2-Bis(pentyloxy)propan-1-aminocarbonyl]-β-maltosylamine. […] FIG. 3C includes a mass spectra of 20 pmol BSA in 1% N-[2,2-Bis(pentyloxy)propan-1-aminocarbonyl]-β-maltosylamine after being degraded for about thirty (30) minutes in 1% TFA at pH 2.5. BSA was detected at m/z 22260, m/z 33377, and m/z 66527.
Referring to FIGS. 5A-C, 0.1% N-[2,2-Bis(hexyloxy)propan-1-aminocarbonyl]-β-maltosylamine was mixed with BSA. The samples were spotted onto a MALDI pre-spotted target with CHCA MALDI matrix using C8 reversed phase tips. FIG. 5A includes a mass spectra of 20 pmol BSA in water. BSA was detected at m/z 22344, m/z 33480, and m/z 66854. FIG. 5B includes a mass spectra of 20 pmol BSA dissolved in 0.1% N-[2,2-Bis(hexyloxy)propan-1-aminocarbonyl]-β-maltosylamine. […] FIG. 5C includes a mass spectra of 20 pmol BSA in 0.1% N-[2,2-Bis(phexyloxy)propan-1-aminocarbonyl]-β-maltosylamine after being degraded for about thirty (30) minutes in 1% TFA at pH 2.5. BSA was detected at m/z 22197, m/z 33284, and m/z 66405.

[1] = 20 pmol BSA dissolved in 0.1% surfactant

Sequence of bovine serum albumin (BSA) (P02769 25-607): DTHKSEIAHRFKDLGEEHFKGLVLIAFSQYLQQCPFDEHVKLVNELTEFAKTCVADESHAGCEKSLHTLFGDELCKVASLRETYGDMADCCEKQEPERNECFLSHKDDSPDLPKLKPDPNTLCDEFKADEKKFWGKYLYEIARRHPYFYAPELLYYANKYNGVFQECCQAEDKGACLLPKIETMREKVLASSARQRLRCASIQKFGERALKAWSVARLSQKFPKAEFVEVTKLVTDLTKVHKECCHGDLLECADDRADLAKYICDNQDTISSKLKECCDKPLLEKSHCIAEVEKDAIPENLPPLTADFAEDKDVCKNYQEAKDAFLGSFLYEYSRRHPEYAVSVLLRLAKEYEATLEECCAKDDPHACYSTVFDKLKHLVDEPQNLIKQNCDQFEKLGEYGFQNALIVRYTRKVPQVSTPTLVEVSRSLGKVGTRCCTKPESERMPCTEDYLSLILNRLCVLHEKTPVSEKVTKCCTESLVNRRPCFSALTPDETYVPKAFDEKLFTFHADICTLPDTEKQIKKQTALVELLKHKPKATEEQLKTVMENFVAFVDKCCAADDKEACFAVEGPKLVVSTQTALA

BSA MALDI signal, intact surfactant [1] | BSA MALDI signal, intact surfactant (20 pmol BSA dissolved in 1% surfactant) | SMILES | BSA MALDI signal after surfactant degradation (0.1% surfactant) | BSA MALDI signal after surfactant degradation (1% surfactant)
no signal from the BSA was detected | – | CCCCCCOC(C)(CNC(=O)NC1OC(CO)C(OC2OC(CO)C(O)C(O)C2O)C(O)C1O)OCCCCCC (stereo not drawn) [N-[2,2-Bis(hexyloxy)propan-1-aminocarbonyl]-β-maltosylamine] | a signal from the BSA was detected when the surfactant was degraded | –
no signal from the BSA was detected | no signal from the BSA was detected | CCCCCOC(C)(CNC(=O)NC1OC(CO)C(OC2OC(CO)C(O)C(O)C2O)C(O)C1O)OCCCCC (stereo not drawn) [N-[2,2-Bis(pentyloxy)propan-1-aminocarbonyl]-β-maltosylamine] | a signal from the BSA was detected when the surfactant was degraded | a signal from the BSA was detected when the surfactant was degraded
